Assay results reported in ChEMBL document CHEMBL1140502, “Synthesis of some tropane derivatives of anticipated activity on the reuptake of norepinephrine and/or serotonin” (2007).

Tests used:
Format in all cases: functional
Mus musculus [1] = assay: Inhibition of NET-mediated norepinephrine-reuptake assessed as yohimbine induced mortality in mouse at 19.42 mM/kg, ip after 24 hrs
Mus musculus [2] = assay: Inhibition of SERT-mediated serotonin-reuptake assessed as 5-hydroxytryptophan induced mouse head twitch at 12.94 mM/kg, ip after 20 mins; design: scale not given: the % may be the effect or the level left
Mus musculus [3] = assay: Inhibition of NET-mediated norepinephrine-reuptake assessed as yohimbine induced mortality in mouse at 25.89 mM/kg, ip after 24 hrs
Mus musculus [4] = organism: Mus musculus; assay: Selectivity ratio of ED50 for 5-HT reuptake in mouse to ED50 for norepinephrine reuptake in mouse
Mus musculus [5] = assay: Inhibition of SERT-mediated serotonin-reuptake assessed as 5-hydroxytryptophan induced mouse head twitch at 6.47 mM/kg, ip after 20 mins; design: scale not given: the % may be the effect or the level left
Mus musculus [6] = assay: Inhibition of SERT-mediated serotonin-reuptake assessed as 5-hydroxytryptophan induced mouse head twitch at 3.24 mM/kg, ip after 20 mins; design: scale not given: the % may be the effect or the level left
Mus musculus [7] = assay: Inhibition of NET-mediated norepinephrine-reuptake assessed as yohimbine induced mortality in mouse at 12.94 mM/kg, ip after 24 hrs; design: scale not given: the % may be the effect or the level left
Mus musculus [8] = assay: Inhibition of NET-mediated norepinephrine-reuptake assessed as yohimbine induced mortality in mouse at 3.24 mM/kg, ip after 24 hrs; design: scale not given: the % may be the effect or the level left
Mus musculus [9] = assay: Inhibition of NET-mediated norepinephrine-reuptake assessed as yohimbine induced mortality in intraperitoneally dosed mouse after 24 hrs; settings: ip
Mus musculus [10] = assay: Inhibition of NET-mediated norepinephrine-reuptake assessed as yohimbine induced mortality in mouse at 6.47 mM/kg, ip after 24 hrs; design: scale not given: the % may be the effect or the level left
Mus musculus [11] = assay: Inhibition of SERT-mediated serotonin-reuptake assessed as 5-hydroxytryptophan induced intraperitoneally dosed mouse head twitch after 20 mins; settings: ip
Mus musculus [12] = assay: Inhibition of SERT-mediated serotonin-reuptake assessed as 5-hydroxytryptophan induced mouse head twitch at 1.62 mM/kg, ip after 20 mins; design: scale not given: the % may be the effect or the level left
Mus musculus [13] = assay: Inhibition of SERT-mediated serotonin-reuptake assessed as 5-hydroxytryptophan induced mouse head twitch at 4.86 mM/kg, ip after 20 mins; design: scale not given: the % may be the effect or the level left
Mus musculus [14] = assay: Inhibition of NET-mediated norepinephrine-reuptake assessed as yohimbine induced mortality in mouse at 9.71 mM/kg, ip after 24 hrs; design: scale not given: the % may be the effect or the level left

Row | SMILES | Activity (Mus musculus [1]) | Activity (Mus musculus [2]) | Activity (Mus musculus [3]) | Ratio ED50 (Mus musculus [4]) | Activity (Mus musculus [5]) | Activity (Mus musculus [6]) | Activity (Mus musculus [7]) | Activity (Mus musculus [8]) | ED50 (Mus musculus [9]) | Activity (Mus musculus [10]) | ED50 (Mus musculus [11]) | Activity (Mus musculus [12]) | Activity (Mus musculus [13]) | Activity (Mus musculus [14])
1 | CN1C2CCC1CC(Oc1cccc(C(F)(F)F)c1)(c1ccccc1)C2 (stereo not drawn) | Toxic | 83.33% | Toxic | 0.1 | 50% | 33.33% | 33.33% | 0% | 53100 µmol/kg | 16.67% | 5.46 µmol/kg |  |  | 
2 | CN1C2CCC1CC(Oc1ccc(Cl)cc1)(c1ccccc1)C2 (stereo not drawn) |  | 83.33% | 66.67% | 0.29 | 66.67% | 33.33% | 33.33% |  | 16100 µmol/kg | 33.33% | 4.72 µmol/kg |  |  | 
3 | CN1C2CCC1CC(Oc1ccc(C#N)cc1)(c1ccc(F)cc1)C2 (stereo not drawn) |  |  |  | 0.59 | Toxic | 50% | 100% | 16.67% | 5020 µmol/kg | 66.67% | 2.94 µmol/kg | 33.33% | 66.67% | 
4 | CN1C2CCC1CC(Oc1ccc(C#N)cc1)(c1ccccc1)C2 (stereo not drawn) |  |  |  | 1.08 | 66.67% | 33.33% | 83.33% | 50% | 4080 µmol/kg | 50% | 4.44 µmol/kg | 16.67% |  | 
5 | CN1C2CCC1CC(Oc1ccc(Br)cc1)(c1ccccc1)C2 (stereo not drawn) |  | 66.67% | 100% | 0.56 | 50% | 33.33% | 50% |  | 11400 µmol/kg | 16.67% |  |  |  | 
6 | CN(C)CCCN1c2ccccc2CCc2ccc(Cl)cc21 [CLOMIPRAMINE] |  |  |  | 0.35 | 83.3% | 50% |  | 16.67% | 5780 µmol/kg |  | 2 µmol/kg | 50% |  | 66.67%
7 | CNCCC(Oc1ccc(C(F)(F)F)cc1)c1ccccc1 (stereo not drawn) [FLUOXETINE] |  | 100% |  | <0.39 | 50% | 16.67% | 0% | 0% | > 12900 µmol/kg | 0% | 5.09 µmol/kg |  |  | 
8 | CN1C2CCC1CC(Oc1ccc([N+](=O)[O-])cc1)(c1ccccc1)C2 (stereo not drawn) |  |  | Toxic | 0.29 | Toxic | 50% | 50% | 0% | 10300 µmol/kg | 50% | 2.94 µmol/kg | 33.33% | 66.67% | 
9 | CN(C)CCCC1(c2ccc(F)cc2)OCc2cc(C#N)ccc21 (stereo not drawn) [CITALOPRAM] |  |  |  | 0.12 | 100% | 83.33% | 16.67% |  | 13700 µmol/kg | 0% | 1.58 µmol/kg | 50% |  | 
10 | CN1C2CCC1CC(Oc1ccc(C(F)(F)F)cc1)(c1ccccc1)C2 (stereo not drawn) | 66.67% | 83.33% | 100% | 0.29 | 66.67% | 50% | 66.67% |  | 11300 µmol/kg | 0% | 3.3 µmol/kg |  |  | 
